System: bladder cancer
Test: Administration of Compound A to human patient suffering from bladder cancer (CT imaging)
Type: in vivo
Settings: 450 mg orally two times per day for two months

SMILES: CC(C)(C[C@H]1CN(S(=O)(=O)c2cccc(C(F)(F)F)c2)c2cc(-c3cc(F)cc(OC(F)F)c3)ccc2O1)C(=O)O [Compound A]
- reduction in bladder cancer burden compared to burden at start of treatment: 24%
